Source: US11364275B2, “Linear lipopeptide paenipeptins and methods of using the same” (priority 2017, dated 2022)
Converted amounts (≈) assume the structure as drawn. Read-outs that look alike come from different tables or passages of the source. Where a SMILES comes first, the peptide text is derived from it. [ ]: non-standard residue; d: D form. The star is where a group is joined. Dab = NCC[C@H](N)C(=O)O; Cbz = O=C(OCc1ccccc1)*

Experiments:
[1] = system: A. baumannii FDA-CDC AR 0063; conditions: A. baumannii AR 0063
[2] = system: K. pneumoniae FDA-CDC AR 0044; conditions: K. pneumoniae AR 0044
[3] = system: Klebsiella pneumoniae ATCC 13883; experiment: MIC of antibiotics with or without paenipeptin analogues (potentiation); assay type: cell-based; conditions: K. pneumoniae ATCC 13883
Description: (§1) Gram-negative bacteria, including Acinetobacter and Klebsiella, are intrinsically resistant to the hydrophobic antibiotic rifampicin.

[4] = system: Acinetobacter baumannii ATCC 19606; experiment: as above; assay type: cell-based; conditions: A. baumannii ATCC 19606
Description: as §1

[5] = system: A. baumannii FDA-CDC AR 0037; conditions: A. baumannii AR 0037
[6] = system: Escherichia coli ATCC 25922; assay type: cell-based; conditions: E. coli ATCC 25922; TSB
Description: (§4) The minimum inhibitory concentration (MIC) of paenipeptin analogues was determined using the broth microdilution method (Wirker, M. A. Methods for Dilution Antimicrobial Susceptibility Tests for Bacteria that Grow Aerobically: Approved Standard M07-A8; Clinical and Laboratory Standards Institute, Wayne, Pa., 2009). Seven reference strains (Acinetobacter baumannii ATCC 19606, Escherichia coli ATCC 25922, Klebsiella pneumoniae ATCC 13883, Pseudomonas aeruginosa ATCC 27853, Enterococcus faecium ATCC 19434, Staphylococcus aureus ATCC 29213 and methicillin-resistant S. aureus ATCC 43300) were subjected to MIC testing.
(§5) Paenipeptin analogues were two-fold diluted in tryptic soy broth (TSB; Becton Dickinson) and mixed with an equal volume of bacterial suspensions in TSB containing approximately 1.5×10^5 colony-forming units (CFU)/mL in a clear UV-sterilized 96-well microtiter plate (NBS, Corning Inc., Corning, N.Y.). […] The microtiter plate was incubated at 37° C. for 18-20 h.

[7] = system: Acinetobacter baumannii ATCC 19606; assay type: cell-based; conditions: A. baumannii ATCC 19606; TSB
Description: as §4, §5

[8] = system: K. pneumoniae FDA-CDC AR 0080; conditions: K. pneumoniae AR 0080
[9] = system: A. baumannii FDA-CDC AR 0083; conditions: A. baumannii AR 0083
[10] = system: K. pneumoniae FDA-CDC AR 0068; conditions: K. pneumoniae AR 0068
[11] = system: A. baumannii FDA-CDC AR 0052; conditions: A. baumannii AR 0052
[12] = system: Pseudomonas aeruginosa ATCC 27853; assay type: cell-based; conditions: P. aeruginosa ATCC 27853; TSB
[13] = system: human kidney cell line (HEK 293); experiment: Cytotoxicity, MTT assay; assay type: cell-based; conditions: HEK 293; 105 μg/ml; 24 h
Description: (§2) Cytotoxicity of paenipeptin analogues was determined against a human kidney cell line (HEK 293) using MTT assays (Huang E, Yousef AE. 2014. Paenibacterin, a novel broad-spectrum lipopeptide antibiotic, neutralises endotoxins and promotes survival in a murine model of Pseudomonas aeruginosa-induced sepsis. Int J Antimicrob Agents 44: 74-77). Cell viability was measured at 24 h following the addition of lipopeptides at concentrations between 30-105 μg/ml. The viability of human embryonic kidney cells (HEK 293) decreased with the increase of paenipeptin concentration. The viability of HEK 293 cells in the presence of paenipeptin analogue 1 and 15 at 105 μg/ml was 61% and 67%, respectively (Table 10). The relatively low cytotoxicity of paenipeptin analogue 1 and 15 was correlated with their low hemolytic activity against red blood cells.

[14] = Cytotoxicity, MTT assay; assay type: cell-based, human; conditions: human, HEK 293 cells, HEK 293, 24 h, read-out: Viability
Description: as §2

[15] = system: K. pneumoniae FDA-CDC AR0097; experiment: Time-kill kinetics in 95% human serum, alone and combined; assay type: cell-based, Klebsiella pneumoniae
Description: (§3) Bacterial viable counts were determined at 0, 2, 4, 6, and 24 h after antimicrobial treatment. Bacterial surviving counts at 24 h endpoints were subjected to analysis of variance (ANOVA) followed by Tukey's honest significant difference (HSD) tests using SPSS Statistics (version 24; SPSS, Inc., Chicago, Ill., USA).
To further test the therapeutic potential of paenipeptin analogues, the time-kill kinetics assays of paenipeptins alone or in combination with other antibiotics were performed in 95% human serum in vitro.

[16] = system: Klebsiella pneumoniae ATCC 13883; assay type: cell-based; conditions: K. pneumoniae ATCC 13883; TSB
Description: as §4, §5

[17] = system: K. pneumoniae FDA-CDC AR 0034; conditions: K. pneumoniae AR 0034
[18] = system: methicillin-resistant S. aureus ATCC 43300; assay type: cell-based, Staphylococcus aureus; conditions: S. aureus ATCC 43300; TSB
[19] = system: Enterococcus faecium ATCC 19434; assay type: cell-based; conditions: E. faecium ATCC 19434; TSB
Description: as §4, §5

[20] = system: Staphylococcus aureus ATCC 29213; assay type: cell-based; conditions: S. aureus ATCC 29213; TSB
Description: as §4, §5

[21] = system: K. pneumoniae FDA-CDC AR 0097; conditions: K. pneumoniae AR 0097
[22] = system: A. baumannii FDA-CDC AR 0063; experiment: Time-kill kinetics in 95% human serum, alone and combined; assay type: cell-based, Acinetobacter baumannii; conditions: A. baumannii AR 0063, 24 h
Description: as §3
To further test the therapeutic potential of paenipeptin analogues, the time-kill kinetics assays of paenipeptins alone or in combination with other antibiotics were performed in 95% human serum in vitro. Without antimicrobial treatment, the population of A. baumannii FDA-CDC AR 0063 increased from 5.8 log to 9.3 log within 24 h. […] (FIG. 7A).

## CC[C@H](C)[C@H](NC(=O)[C@H](CCN)NC(=O)OCc1ccccc1)C(=O)N[C@@H](CCN)C(=O)N[C@H](Cc1ccccc1)C(=O)N[C@@H](CC(C)C)C(=O)N[C@@H](CCN)C(=O)N[C@@H](C(=O)N[C@@H](CC(C)C)C(=O)N[C@@H](CO)C(N)=O)C(C)C [Analogue 15] (Cbz-[Dab]I[Dab][dF]L[Dab][dV]LS-NH2)
[1]; 10% FBS
  MIC alone: 2 µg/mL (≈ 1.78 µM)
[1]; No FBS
  MIC alone: 0.5 to 4 µg/mL
[2]
  MIC of clarithromycin at the presence of PMBN or paenipeptin analogue at 4 μg/ml: 0.0078-0.0156 μg/ml
  MIC of rifampicin at the presence of PMBN or paenipeptin analogue at 4 μg/ml: ≤0.0019 μg/ml
[2]; 10% FBS
  MIC alone: 16 to 32 µg/mL
[2]; No FBS
  MIC alone: 32 µg/mL (≈ 28.5 µM)
[3]
  MIC of rifampicin at 2 μg/mL of paenipeptin analogue: 0.0039 μg/ml
  MIC of rifampicin at 4 μg/mL of paenipeptin analogue: 0.00195-0.0039 μg/ml
[3]; MIC without / with 4 μg/mL paenipeptin
  Sensitization factor (rifampicin): 4,096-8,192
[4]
  MIC of rifampicin at 2 μg/mL of paenipeptin analogue: 0.0019-0.0039 μg/ml
[5]
  MIC of rifampicin at the presence of PMBN or paenipeptin analogue at 4 μg/ml: ≤0.0019 μg/ml
[5]; 10% FBS
  MIC alone: 4 µg/mL (≈ 3.56 µM)
[5]; No FBS
  MIC alone: 8 µg/mL (≈ 7.11 µM)
[5]; analogue at 4 μg/mL
  increase in antibiotic activity of clarithromycin: 8192 fold
[6]
  MIC: 8 to 16 µg/mL
[7]
  MIC: 16 µg/mL (≈ 14.2 µM)
[8]
  MIC of clarithromycin at the presence of PMBN or paenipeptin analogue at 4 μg/ml: 0.0156 μg/ml
  MIC of rifampicin at the presence of PMBN or paenipeptin analogue at 4 μg/ml: 0.0313 μg/ml
[8]; 10% FBS
  MIC alone: 32 µg/mL (≈ 28.5 µM)
[8]; No FBS
  MIC alone: 32 µg/mL (≈ 28.5 µM)
[9]
  MIC of clarithromycin at the presence of PMBN or paenipeptin analogue at 4 μg/ml: 1-4 μg/ml
  MIC of rifampicin at the presence of PMBN or paenipeptin analogue at 4 μg/ml: 0.0313-0.0625 μg/ml
[9]; 10% FBS
  MIC alone: 4 to 8 µg/mL
[9]; No FBS
  MIC alone: 8 to 16 µg/mL
[10]
  MIC of clarithromycin at the presence of PMBN or paenipeptin analogue at 4 μg/ml: >32 μg/ml
  MIC of rifampicin at the presence of PMBN or paenipeptin analogue at 4 μg/ml: 0.0039-0.0078 μg/ml
[10]; 10% FBS
  MIC alone: >32 µg/mL
[10]; No FBS
  MIC alone: >32 µg/mL
[11]; 10% FBS
  MIC alone: <0.5 µg/mL
[11]; No FBS
  MIC alone: ≤0.5 µg/mL
[12]
  MIC: 16 µg/mL (≈ 14.2 µM)
[13]
  Viability: 67%
[14]; 30 μg/ml
  viability at 24 h, 30 µg/mL: 91.4 ± 4.09%
[14]; 45 μg/ml
  viability at 24 h, 45 µg/mL: 84.3 ± 8.12%
[14]; 60 μg/ml
  viability at 24 h, 60 µg/mL: 82 ± 4.54%
[14]; 75 μg/ml
  viability at 24 h, 75 µg/mL: 73.3 ± 5.37%
[14]; 90 μg/ml
  viability at 24 h, 90 µg/mL: 67.1 ± 10%
[14]; 105 μg/ml
  viability at 24 h, 105 µg/mL: 67.5 ± 9.66%
[15]; 24 h
  log reduction, analogue 4 μg/ml in combination with rifampicin 4 μg/ml: 4.6 log
[15]; within 24 h
  log inactivation, single agent at 4 μg/ml: didn't show bactericidal activity
[16]
  MIC: >32 µg/mL
[17]
  MIC of clarithromycin at the presence of PMBN or paenipeptin analogue at 4 μg/ml: 0.125-0.5 μg/ml
  MIC of rifampicin at the presence of PMBN or paenipeptin analogue at 4 μg/ml: ≤0.0019 μg/ml
[17]; 10% FBS
  MIC alone: >32 µg/mL
[17]; No FBS
  MIC alone: ≥32 µg/mL
[18]
  MIC: >32 µg/mL
[19]
  MIC: >32 µg/mL
[20]
  MIC: >32 µg/mL
[21]
  MIC of clarithromycin at the presence of PMBN or paenipeptin analogue at 4 μg/ml: 0.0078-0.0156 μg/ml
  MIC of rifampicin at the presence of PMBN or paenipeptin analogue at 4 μg/ml: 0.0019-0.0039 μg/ml
[21]; 10% FBS
  MIC alone: 16 to 32 µg/mL
[21]; No FBS
  MIC alone: >32 µg/mL
[22]
  decrease of bacterial population, analogue 4 μg/ml in combination with rifampicin 4 μg/ml: 2.7 log
  log reduction, analogue 4 μg/ml in combination with clarithromycin 4 μg/ml: 0.7 log
